From patent US20080009025A1, “PROTEIN KINASE REGULATION” (priority 1999, published 2008)
Where a SMILES comes first, the peptide text is derived from it.

How the values were obtained:
[1] = target: T1, PDK1 (Homo sapiens, UniProt O15530); test: Phosphorylation of p70 S6K at Thr412 by PDK1 in vitro (T412-P immunoblot); type: biochemical; set-up: made in house; host or cells: 293 cells or E. coli; conditions: peptide 4 μM
T1 sequence (O15530 1-556): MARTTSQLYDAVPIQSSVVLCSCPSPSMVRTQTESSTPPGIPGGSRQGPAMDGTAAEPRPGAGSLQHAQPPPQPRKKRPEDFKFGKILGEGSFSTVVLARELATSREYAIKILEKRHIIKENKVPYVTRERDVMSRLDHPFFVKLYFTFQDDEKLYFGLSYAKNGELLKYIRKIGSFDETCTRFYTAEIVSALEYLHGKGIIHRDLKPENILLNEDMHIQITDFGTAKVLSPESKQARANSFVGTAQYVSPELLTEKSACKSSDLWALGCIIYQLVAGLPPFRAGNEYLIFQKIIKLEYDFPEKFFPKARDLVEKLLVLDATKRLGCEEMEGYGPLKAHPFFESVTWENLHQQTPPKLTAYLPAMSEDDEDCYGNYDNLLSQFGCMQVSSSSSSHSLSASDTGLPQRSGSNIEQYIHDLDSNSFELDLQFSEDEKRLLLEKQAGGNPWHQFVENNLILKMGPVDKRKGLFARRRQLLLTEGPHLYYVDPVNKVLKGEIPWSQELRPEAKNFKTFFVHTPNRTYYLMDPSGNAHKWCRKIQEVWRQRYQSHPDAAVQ
Experimental: FIG. 2. PDK1 phosphorylates p70 S6K at Thr412 in vitro and this is inhibited by PIF. 0.5 μg of either wild type GST-p70 S6K-T2 (wt), T252A-GST-p70 S6K-T2 (252A) or T412A-GST-p70 S6K-T2 (412A) were incubated for 90 min at 30° C. with MgATP in the presence or absence of wild type (wt) or kinase-dead (kd) GST-PDK1 expressed in either 293 cells or bacteria in the presence (+) or absence (−) of the wild type PIF peptides (4 μM) in a final volume of 20 μl. The reactions were terminated by making the solutions 1% in SDS, the samples were subjected to SDS-polyacylamide gel electrophoresis, and the phosphorylation of p70 S6K at Thr412 was assessed by immunoblotting with the T-412P antibody. Similar results were obtained in three separate experiments.
Immunoblotting for dephosphorylated and Thr412-phosphorylated p70 S6 kinase. Cell lysates were made 1% SDS and the indicated amounts of protein were subjected to SDS/Polyacrylamide gel electrophoresis, subsequently transferred to nitrocellulose and immunoblotted using the indicated monoclonal antibody or the T412-P phospho-specific antibody (0.4 μg/ml) in 50 mM Tris/HCl pH7.5, 0.15M NaCl, 0.5% (by vol) Tween and 10% (by mass) skimmed milk. Detection was performed using the enhanced chemiluminescence reagent (Amersham Pharmacia Biotech).

[2] = target: T2, PDK1 (Homo sapiens, UniProt O15530); test: Surface plasmon resonance binding of His-PDK1 to immobilised p70 S6K; conditions: 10 μM peptide
T2 construct: Full length PDK1 (residues 1-556); made in house; host or cells: 293 cells
T2 sequence (O15530 52-556): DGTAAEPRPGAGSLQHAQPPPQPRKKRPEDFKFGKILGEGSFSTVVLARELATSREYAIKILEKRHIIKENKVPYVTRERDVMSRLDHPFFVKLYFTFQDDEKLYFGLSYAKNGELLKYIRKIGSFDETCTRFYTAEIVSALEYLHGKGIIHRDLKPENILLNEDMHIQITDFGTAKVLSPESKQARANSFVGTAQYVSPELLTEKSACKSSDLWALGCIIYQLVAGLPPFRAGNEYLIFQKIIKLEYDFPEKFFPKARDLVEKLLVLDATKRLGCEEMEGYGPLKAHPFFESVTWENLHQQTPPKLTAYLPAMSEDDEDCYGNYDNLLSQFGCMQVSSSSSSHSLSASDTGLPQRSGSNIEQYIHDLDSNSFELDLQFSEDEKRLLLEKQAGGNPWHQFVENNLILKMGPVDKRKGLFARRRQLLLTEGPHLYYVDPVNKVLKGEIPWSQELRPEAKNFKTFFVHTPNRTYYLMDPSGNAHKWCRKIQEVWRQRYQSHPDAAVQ
Experimental: FIG. 6. Quantitative analysis of the binding of PDK1 to p70 S6K. Surface Plasmon Resonance measurements were carried out on a BiaCore instrument as described in the Methods. His-PDK1 was injected at the indicated concentrations over (A) 2000 RUs of p70 S6K-T2 (closed squares), or 412Ep70 S6K-T2 (closed circles) which was immobolised by amine coupling to a CM5 Sensorchip. Experiments carried out in the presence of either 10 μM wild type PIF peptide (hexagons) or 10 μM D978A mutant PIF peptide (triangles) are indicated. The responses at steady state binding were recorded. All data are single determinations from a representative experiment that was repeated at least 3 times with similar results.
Surface plasmon resonance measurements of PDK1 binding to p70 S6 kinase. p70 S6K-T2 and T412Ep70S6K-T2 mutant were amine coupled to a CM5 sensor chip (BIAcore AB) according to the manufacturer's instructions. The indicated concentrations of His-PDK1 was injected over the chip at a flow rate of 30 μl/min and the steady-state binding determined, in the presence or absence of PIF peptide. The apparent equilibrium dissociation constant (Kd) for the binding of His-PDK1 to p70 S6 kinase was determined by fitting the increase in steady-state binding upon increased PDK1 concentration to a rectangular hyperbola using SigmaPlot 4 (SPSS Inc). […]

Question: With `CC[C@H](C)[C@H](NC(=O)[C@H](Cc1ccc(O)cc1)NC(=O)[C@H](CC(=O)O)NC(=O)[C@H](Cc1ccccc1)NC(=O)[C@H](CC(=O)O)NC(=O)[C@H](CCCNC(=N)N)NC(=O)[C@H](Cc1ccccc1)NC(=O)[C@H](CCSC)NC(=O)[C@H](CCC(=O)O)NC(=O)[C@H](CCC(N)=O)NC(=O)[C@H](CCC(=O)O)NC(=O)[C@H](CCC(=O)O)NC(=O)[C@H](CCC(=O)O)NC(=O)[C@H](CO)NC(=O)[C@H](CC(C)C)NC(=O)[C@@H](NC(=O)[C@H](CCCNC(=N)N)NC(=O)[C@@H]1CCCN1C(=O)[C@H](CCC(=O)O)NC(=O)[C@@H](N)CCCNC(=N)N)[C@@H](C)CC)C(=O)N[C@@H](C)C(=O)N[C@@H](CC(=O)O)C(=O)N[C@@H](Cc1c[nH]c2ccccc12)C(=O)N[C@@H](CS)C(=O)O` [PIFtide] (H-REPRILSEEEQEMFRDFDYIADWC-OH; N-terminus and C-terminus assumed) as the compound, how does the “effect on phosphorylation of p70 S6K at Thr412 by PDK1” value [1] read?
Answer: prevented

Question: And the “effect on the interaction between PDK1 and 412E-p70 S6K-T2” value [2]?
Answer: abolished
